The values that follow come from patent US6013618A, “Perfumes having odor longevity benefits” (Procter & Gamble Company, priority 1998, dated 2000).

A short description of this data set: Fragrance Release Half-life: hydrolysis kinetics of pro-accords monitored by HPLC. Format: physicochemical. As to conditions: 10 mL phosphate buffer (NaH2PO4/H3PO4, approximately pH 2.5) admixed with 90 mL dioxane, 30° C. The text has this: Fragrance Release Half-life
The pro-accords useful in the perfume and fine flagrance compositions of the present invention generally have a delayed release of final fragrance accord in order to achieve the increased fragrance longevity benefits described herein. However, the pro-accords generally also deliver the fragrance accords during a time period useful to the formulator, for example, within a time period desirable to the consumer.
For the purposes of the present invention the pro-accords generally have a "Fragrance Release Half-life" of less than or equal to 12 hours when measured in NaH2 PO4 buffer at pH 2.5 and greater than or equal to 0.1 hour when measured in NaH2 PO4 buffer at pH 5.3. The "Fragrance Release Half-life" is defined herein as follows
Pro-accords deliver their corresponding mixture of fragrance raw materials or fragrance accords according to the equation: […]
wherein the accord which is released may be a binary accord or a multiple fragrance raw material accord.
The rate at which the accord is released is defined by the formula: […]
An example of the procedure used to measure the suitability of a pro-accord for use in the fragrance delivery systems at pH 2.5 is as follows. […] Next 10 mL of the phosphate buffer is admixed with 90 mL of dioxane and the pro-fragrance to be analyzed is added. The hydrolysis kinetics are then monitored by conventional HPLC at 30° C. […]

With `c1ccc(CCOC(OCCc2ccccc2)OCCc2ccccc2)cc1` [tris(phenylethyl) orthoformate, Tris(phenylethyl) Orthoformate], the “t1/2 (Fragrance Release Half-life)” value turned out to be 5.9 h.

On to `c1ccc(CCOC(OCCc2ccccc2)(OCCc2ccccc2)OCCc2ccccc2)cc1` [tetrakis(phenylethyl) orthocarbonate, Tetrakis(phenylethyl) Orthocarbonate], for which the “t1/2 (Fragrance Release Half-life)” value is 4.8 h.
